Assay results taken from US8993626B2, “Methods of treatment using sterculic acid” (The United States of America, as represented by the …, priority 2010, dated 2015).
“Also recorded” adds a separate entry of the source.

Tests used:
[1] = test system: Human retinal pigment epithelial (RPE) cells (ARPE-19); assay: Microarray-based gene expression analysis of sterculic acid treated RPE cells; format: cell-based; details: 10 μM sterculic acid, 72 h
Method: Human retinal pigment epithelial (RPE) cells (ARPE-19) obtained from ATCC (Manassas, Va.) were grown in Dulbecco's Modified Eagle's Medium (DMEM) containing nutrient mixture F12 (Cellgro, Va.) supplemented with 5% fetal bovine serum, penicillin (100 U/ml) and streptomycin (100 μg/ml). Cells were seeded at a density of 2×10^5 cells/ml in complete medium and allowed to grow overnight. The culture medium was replaced next day with fresh medium before treating with 10 μM of sterculic acid dissolved in DMSO. The controls received the same amount of DMSO. After 72 h, total RNA, 100 ng, was amplified according to Affymetrix's small sample protocol, and 20 μg of cRNA was then hybridized on each NEI GeneChip microarray. After hybridization, GeneChip array was washed, stained with streptavidin-PE (Molecular Probes), amplified with biotinylated anti-streptavidin antibody and scanned with an argon ion Confocal Laser at 570 nm (Affymetrix). Affymetrix GeneChip Operating software was used for absolute expression and to normalize the gene expression levels between any two samples. Data were then incorporated into GeneSpring software 7.2 ([…]) for chip normalization, filtering and cluster analysis.

[2] = test system: laser-induced CNV; assay: Laser-induced choroidal neovascularization (CNV) rat model; format: in vivo, Brown Norway rats; details: day 7
Method: FIG. 2 depicts the results of choroidal neovascularization (CNV) suppression after a single intravitreal injection 48 hours after laser exposure. Box-and-whisker plot representations of volume of CNV lesions from rats treated with a single intravitreal injection as indicated in the x-axis. The y-axis represents neovessel lesion volume expressed in cubic microns. The number of lesions evaluated per condition (n) is depicted in the graph. Values inside of the box represent the central 50% of measurements. The horizontal line inside the box corresponds to the median values, and the vertical lines outside the boxes correspond to variances of measurements. *Highly significant difference compared with oleic acid and PBS.
FIG. 3 depicts the results of daily application of sterculic acid-containing drops to suppress laser-induced CNV. (A) Representative flat-mount projections from confocal microscope Z-series 7 days after laser. The red channel identifies vessels (Isolectin IB-4). Conditions are indicated above each projection. (B) Box-and-whisker plot representations of volume of CNV lesions from rats treated with daily drops as indicated in the x-axis. The y-axis represents neovessel lesion volume expressed in cubic microns. The number of lesions evaluated per condition (n) is depicted in the graph. Values inside of the box represent the central 50% of measurements. […]
FIG. 4 depicts the dose response of CNV suppression after daily application of sterculic acid-containing drops after laser exposure. […] The number of lesions evaluated per condition (n) is depicted in the graph. […]
Laser-induced CNV, flat mount preparations, and lesion evaluations were performed following established methods. […] Neovessels were visualized with confocal microscopy using choroid/RPE flat mounts labelled with Alexa Fluor 568-Isolectin IB4 to identify endothelial cells and neovessel volumes were quantified using VOLOCITY software. […]

[3] = test system: ARPE19 cells; assay: 7-ketocholesterol-mediated cytotoxicity, 24-well CCK-8 viability and images; details: 24 hr

CCCCCCCCC1=C(CCCCCCCC(=O)O)C1 [sterculic acid, 8-(2-octacyclopropen-1-yl)octanoic acid]
Fold Change, ALDH3A1, down-regulated [1]: 7 fold | Fold Change, ALDH7A1, up-regulated [1]: 15 fold | Fold Change, ATF4, down-regulated [1]: 7 fold | Fold Change, BMP7, up-regulated [1]: 6 fold | Fold Change, CRABP1, down-regulated [1]: 8 fold | Fold Change, CTSC, up-regulated [1]: 9 fold | Fold Change, FNTA, up-regulated [1]: 4 fold | Fold Change, GADD45B, down-regulated [1]: 7 fold | Fold Change, GOT2, up-regulated [1]: 5 fold | Fold Change, HSPCA, up-regulated [1]: 11 fold | Fold Change, HYOU1, down-regulated [1]: 10 fold | Fold Change, IGFBP3, down-regulated [1]: 3 fold | Fold Change, MMP2, down-regulated [1]: 7 fold | Fold Change, MT1H, down-regulated [1]: 8 fold | Fold Change, PALLD, up-regulated [1]: 5 fold | Fold Change, SCEL, up-regulated [1]: 5 fold | Fold Change, SOD1, up-regulated [1]: 5 fold | Fold Change, SUOX, up-regulated [1]: 3 fold | Fold Change, VBP1, up-regulated [1]: 5 fold | CNV suppression ([2]; daily drops 0.1 mM after laser, compared to PBS): 66% | CNV suppression ([2]; daily drops 1 mM after laser, compared to oleic acid): 45% | CNV suppression ([2]; single intravitreal injection 1 mM in 1 μL, 48 hours after laser, compared to oleic acid and PBS injection): 33% | protection of cell confluency and morphology (images) ([3]; 0.5 μM co-treatment with 12 μM 7KCh): maintain both cell confluency and cell morphology similar to the control; also recorded: apparent protection | protection of cell confluency and morphology (images) ([3]; 1 μM co-treatment with 12 μM 7KCh): maintain both cell confluency and cell morphology similar to the control; also recorded: apparent protection | co-treatment concentration that completely offsets the 7KCh cytotoxic effect ([3]; 12 μM 7KCh, CCK-8): 1 µM | concentration at which apparent protection is seen ([3]; 12 μM 7KCh, CCK-8): 0.5 µM
